Assay: xn = mol fraction of the nth substance listed
Conditions: 102 kPa, Liquid; for speed of sound: Frequency=5 MHz, Single path-length method; for mass density: Vibrating tube method

CCCCC(=O)[O-].C[NH2+]CCO [2-hydroxy-N-methylethanaminium pentanoate] + O
Conditions | mass density [kg/m3] | speed of sound [m/s]
298.15 K, x1 = 0.0199 | 1013 | 1645.3
298.15 K, x1 = 0.05 | 1026 | 1705.8
298.15 K, x1 = 0.0988 | 1027.5 | 1670.2
298.15 K, x1 = 0.2023 | 1029.9 | 1644.9
298.15 K, x1 = 0.3 | 1028.5 | 1633.5
298.15 K, x1 = 0.4053 | 1025.2 | 1609.2
298.15 K, x1 = 0.5003 | 1021 | 1583.7
298.15 K, x1 = 0.5993 | 1019.1 | 1571.3
298.15 K, x1 = 0.8061 | 1013.3 | 1541.8
298.15 K, x1 = 1 | 1009.3 | 1516.3
303.15 K, x1 = 0.0199 | 1009.6 | 1644.5
303.15 K, x1 = 0.05 | 1022.7 | 1698.6
303.15 K, x1 = 0.0988 | 1024.2 | 1659.8
303.15 K, x1 = 0.2023 | 1026.8 | 1631.5
303.15 K, x1 = 0.3 | 1025.4 | 1618.8
303.15 K, x1 = 0.4053 | 1022.1 | 1594.7
303.15 K, x1 = 0.5003 | 1017.8 | 1568.6
303.15 K, x1 = 0.5993 | 1015.9 | 1556.3
303.15 K, x1 = 0.8061 | 1010.1 | 1526.5
303.15 K, x1 = 1 | 1006 | 1503.7
308.15 K, x1 = 0.0199 | 1006.1 | 1643.7
308.15 K, x1 = 0.05 | 1019.3 | 1691.5
308.15 K, x1 = 0.0988 | 1020.9 | 1649.5
308.15 K, x1 = 0.2023 | 1023.7 | 1618.1
308.15 K, x1 = 0.3 | 1022.3 | 1604.2
308.15 K, x1 = 0.4053 | 1018.9 | 1580.2
308.15 K, x1 = 0.5003 | 1014.6 | 1553.5
308.15 K, x1 = 0.5993 | 1012.7 | 1541.4
308.15 K, x1 = 0.8061 | 1006.9 | 1511.2
308.15 K, x1 = 1 | 1002.8 | 1486.5
313.15 K, x1 = 0.0199 | 1002.7 | 1642.9
313.15 K, x1 = 0.05 | 1015.9 | 1684.3
313.15 K, x1 = 0.0988 | 1017.7 | 1639.1
313.15 K, x1 = 0.2023 | 1020.7 | 1604.8
313.15 K, x1 = 0.3 | 1019.2 | 1589.6
313.15 K, x1 = 0.4053 | 1015.8 | 1565.7
313.15 K, x1 = 0.5003 | 1011.5 | 1538.4
313.15 K, x1 = 0.5993 | 1009.5 | 1526.5
313.15 K, x1 = 0.8061 | 1003.6 | 1495.9
313.15 K, x1 = 1 | 999.6 | 1471
318.15 K, x1 = 0.0199 | 999.3 | 1642.2
318.15 K, x1 = 0.05 | 1012.6 | 1677.2
318.15 K, x1 = 0.0988 | 1014.4 | 1628.8
318.15 K, x1 = 0.2023 | 1017.6 | 1591.4
318.15 K, x1 = 0.3 | 1016.1 | 1575
318.15 K, x1 = 0.4053 | 1012.7 | 1551.2
318.15 K, x1 = 0.5003 | 1008.3 | 1523.3
318.15 K, x1 = 0.5993 | 1006.3 | 1511.5
318.15 K, x1 = 0.8061 | 1000.4 | 1480.6
318.15 K, x1 = 1 | 996.3 | 1457
323.15 K, x1 = 0.0199 | 995.8 | 1641.4
323.15 K, x1 = 0.05 | 1009.2 | 1670
323.15 K, x1 = 0.0988 | 1011.1 | 1618.5
323.15 K, x1 = 0.2023 | 1014.6 | 1578
323.15 K, x1 = 0.3 | 1012.9 | 1560.4
323.15 K, x1 = 0.4053 | 1009.5 | 1536.7
323.15 K, x1 = 0.5003 | 1005.1 | 1508.2
323.15 K, x1 = 0.5993 | 1003.1 | 1496.6
323.15 K, x1 = 0.8061 | 997.2 | 1465.3
323.15 K, x1 = 1 | 993.1 | 1440
328.15 K, x1 = 0.0199 | 992.4 | 1640.6
328.15 K, x1 = 0.05 | 1005.9 | 1662.8
328.15 K, x1 = 0.0988 | 1007.8 | 1608.1
328.15 K, x1 = 0.2023 | 1011.5 | 1564.6
328.15 K, x1 = 0.3 | 1009.8 | 1545.7
328.15 K, x1 = 0.4053 | 1006.4 | 1522.2
328.15 K, x1 = 0.5003 | 1002 | 1493.1
328.15 K, x1 = 0.5993 | 999.9 | 1481.7
328.15 K, x1 = 0.8061 | 993.9 | 1450
328.15 K, x1 = 1 | 989.9 | 1424.6
333.15 K, x1 = 0.0199 | 988.9 | 1639.8
333.15 K, x1 = 0.05 | 1002.5 | 1655.7
333.15 K, x1 = 0.0988 | 1004.5 | 1597.8
333.15 K, x1 = 0.2023 | 1008.5 | 1551.2
333.15 K, x1 = 0.3 | 1006.7 | 1531.1
333.15 K, x1 = 0.4053 | 1003.2 | 1507.7
333.15 K, x1 = 0.5003 | 998.8 | 1478.1
333.15 K, x1 = 0.5993 | 996.7 | 1466.7
333.15 K, x1 = 0.8061 | 990.7 | 1434.6
333.15 K, x1 = 1 | 986.7 | 1412.8

CCCC(=O)[O-].C[NH2+]CCO [N-methyl-2-hydroxyethylammonium butanoate] + O
Conditions | mass density [kg/m3] | speed of sound [m/s]
298.15 K, x1 = 0.0199 | 1016.9 | 1645.6
298.15 K, x1 = 0.0497 | 1035 | 1762.6
298.15 K, x1 = 0.1005 | 1040.8 | 1773.4
298.15 K, x1 = 0.196 | 1050.5 | 1739.5
298.15 K, x1 = 0.3008 | 1052.5 | 1732
298.15 K, x1 = 0.4005 | 1049.1 | 1693.9
298.15 K, x1 = 0.509 | 1046.8 | 1674.1
298.15 K, x1 = 0.5968 | 1045 | 1659.6
298.15 K, x1 = 0.8069 | 1041.3 | 1630.4
298.15 K, x1 = 1 | 1035.3 | 1562.9
303.15 K, x1 = 0.0199 | 1013.1 | 1646.1
303.15 K, x1 = 0.0497 | 1032.4 | 1755.1
303.15 K, x1 = 0.1005 | 1037.9 | 1763.6
303.15 K, x1 = 0.196 | 1047.4 | 1725.4
303.15 K, x1 = 0.3008 | 1049.4 | 1717
303.15 K, x1 = 0.4005 | 1046 | 1678.1
303.15 K, x1 = 0.509 | 1043.6 | 1658.3
303.15 K, x1 = 0.5968 | 1041.7 | 1643.9
303.15 K, x1 = 0.8069 | 1038 | 1614.5
303.15 K, x1 = 1 | 1031.9 | 1548
308.15 K, x1 = 0.0199 | 1009.2 | 1646.7
308.15 K, x1 = 0.0497 | 1029.8 | 1747.6
308.15 K, x1 = 0.1005 | 1035 | 1753.8
308.15 K, x1 = 0.196 | 1044.4 | 1711.3
308.15 K, x1 = 0.3008 | 1046.3 | 1701.9
308.15 K, x1 = 0.4005 | 1042.8 | 1662.3
308.15 K, x1 = 0.509 | 1040.4 | 1642.4
308.15 K, x1 = 0.5968 | 1038.5 | 1628.1
308.15 K, x1 = 0.8069 | 1034.7 | 1598.6
308.15 K, x1 = 1 | 1028.6 | 1529.7
313.15 K, x1 = 0.0199 | 1005.3 | 1647.3
313.15 K, x1 = 0.0497 | 1027.2 | 1740
313.15 K, x1 = 0.1005 | 1032 | 1744
313.15 K, x1 = 0.196 | 1041.3 | 1697.2
313.15 K, x1 = 0.3008 | 1043.2 | 1686.8
313.15 K, x1 = 0.4005 | 1039.6 | 1646.5
313.15 K, x1 = 0.509 | 1037.2 | 1626.6
313.15 K, x1 = 0.5968 | 1035.3 | 1612.4
313.15 K, x1 = 0.8069 | 1031.4 | 1582.7
313.15 K, x1 = 1 | 1025.2 | 1511.9
318.15 K, x1 = 0.0199 | 1001.5 | 1647.8
318.15 K, x1 = 0.0497 | 1024.6 | 1732.5
318.15 K, x1 = 0.1005 | 1029.1 | 1734.2
318.15 K, x1 = 0.196 | 1038.3 | 1683.1
318.15 K, x1 = 0.3008 | 1040.1 | 1671.7
318.15 K, x1 = 0.4005 | 1036.4 | 1630.6
318.15 K, x1 = 0.509 | 1034 | 1610.7
318.15 K, x1 = 0.5968 | 1032.1 | 1596.6
318.15 K, x1 = 0.8069 | 1028.1 | 1566.8
318.15 K, x1 = 1 | 1021.9 | 1499.4
323.15 K, x1 = 0.0199 | 997.6 | 1648.4
323.15 K, x1 = 0.0497 | 1022 | 1725
323.15 K, x1 = 0.1005 | 1026.2 | 1724.5
323.15 K, x1 = 0.196 | 1035.2 | 1669
323.15 K, x1 = 0.3008 | 1036.9 | 1656.6
323.15 K, x1 = 0.4005 | 1033.3 | 1614.8
323.15 K, x1 = 0.509 | 1030.9 | 1594.8
323.15 K, x1 = 0.5968 | 1028.9 | 1580.8
323.15 K, x1 = 0.8069 | 1024.9 | 1550.9
323.15 K, x1 = 1 | 1018.5 | 1481.3
328.15 K, x1 = 0.0199 | 993.7 | 1648.9
328.15 K, x1 = 0.0497 | 1019.4 | 1717.5
328.15 K, x1 = 0.1005 | 1023.2 | 1714.7
328.15 K, x1 = 0.196 | 1032.2 | 1654.9
328.15 K, x1 = 0.3008 | 1033.8 | 1641.6
328.15 K, x1 = 0.4005 | 1030.1 | 1599
328.15 K, x1 = 0.509 | 1027.7 | 1579
328.15 K, x1 = 0.5968 | 1025.6 | 1565.1
328.15 K, x1 = 0.8069 | 1021.6 | 1535
328.15 K, x1 = 1 | 1015.2 | 1467.2
333.15 K, x1 = 0.0199 | 989.9 | 1649.5
333.15 K, x1 = 0.0497 | 1016.8 | 1709.9
333.15 K, x1 = 0.1005 | 1020.3 | 1704.9
333.15 K, x1 = 0.196 | 1029.1 | 1640.8
333.15 K, x1 = 0.3008 | 1030.7 | 1626.5
333.15 K, x1 = 0.4005 | 1026.9 | 1583.1
333.15 K, x1 = 0.509 | 1024.5 | 1563.1
333.15 K, x1 = 0.5968 | 1022.4 | 1549.3
333.15 K, x1 = 0.8069 | 1018.3 | 1519.1
333.15 K, x1 = 1 | 1011.9 | 1451.2
